# From article PMC5715595 (British Journal of Pharmacology, 2017)
# Like-named read-outs stand apart in the source and are kept apart here.
# Assays:
# Kv11.1 (hERG) channel = Kv11.1 (hERG) channel (Homo sapiens, UniProt Q12809); test: cell-based
# Procedure: A whole‐cell patch clamp study was performed on isolated cells at room temperature. Cells were initially clamped at −80 mV, and biphasic pulses (4.8 s at +20 mV and then for 5 s at −50 mV) were applied at a 0.067 Hz frequency. […] Peak tail current amplitudes for each concentration were measured and averaged for four consecutive stimuli. Vehicle control tested in parallel evaluated the spontaneous run‐down of hERG current over time in testing conditions and the corresponding correction was applied.
# CaV3.2 = molecular target: T1, CaV3.2 (Homo sapiens, UniProt O95180); test: Whole-cell patch clamp on CaV3.2 (ICaT); type: cell-based
# T1 construct: expressed in transfected cells
# T1 sequence (O95180 whole entry): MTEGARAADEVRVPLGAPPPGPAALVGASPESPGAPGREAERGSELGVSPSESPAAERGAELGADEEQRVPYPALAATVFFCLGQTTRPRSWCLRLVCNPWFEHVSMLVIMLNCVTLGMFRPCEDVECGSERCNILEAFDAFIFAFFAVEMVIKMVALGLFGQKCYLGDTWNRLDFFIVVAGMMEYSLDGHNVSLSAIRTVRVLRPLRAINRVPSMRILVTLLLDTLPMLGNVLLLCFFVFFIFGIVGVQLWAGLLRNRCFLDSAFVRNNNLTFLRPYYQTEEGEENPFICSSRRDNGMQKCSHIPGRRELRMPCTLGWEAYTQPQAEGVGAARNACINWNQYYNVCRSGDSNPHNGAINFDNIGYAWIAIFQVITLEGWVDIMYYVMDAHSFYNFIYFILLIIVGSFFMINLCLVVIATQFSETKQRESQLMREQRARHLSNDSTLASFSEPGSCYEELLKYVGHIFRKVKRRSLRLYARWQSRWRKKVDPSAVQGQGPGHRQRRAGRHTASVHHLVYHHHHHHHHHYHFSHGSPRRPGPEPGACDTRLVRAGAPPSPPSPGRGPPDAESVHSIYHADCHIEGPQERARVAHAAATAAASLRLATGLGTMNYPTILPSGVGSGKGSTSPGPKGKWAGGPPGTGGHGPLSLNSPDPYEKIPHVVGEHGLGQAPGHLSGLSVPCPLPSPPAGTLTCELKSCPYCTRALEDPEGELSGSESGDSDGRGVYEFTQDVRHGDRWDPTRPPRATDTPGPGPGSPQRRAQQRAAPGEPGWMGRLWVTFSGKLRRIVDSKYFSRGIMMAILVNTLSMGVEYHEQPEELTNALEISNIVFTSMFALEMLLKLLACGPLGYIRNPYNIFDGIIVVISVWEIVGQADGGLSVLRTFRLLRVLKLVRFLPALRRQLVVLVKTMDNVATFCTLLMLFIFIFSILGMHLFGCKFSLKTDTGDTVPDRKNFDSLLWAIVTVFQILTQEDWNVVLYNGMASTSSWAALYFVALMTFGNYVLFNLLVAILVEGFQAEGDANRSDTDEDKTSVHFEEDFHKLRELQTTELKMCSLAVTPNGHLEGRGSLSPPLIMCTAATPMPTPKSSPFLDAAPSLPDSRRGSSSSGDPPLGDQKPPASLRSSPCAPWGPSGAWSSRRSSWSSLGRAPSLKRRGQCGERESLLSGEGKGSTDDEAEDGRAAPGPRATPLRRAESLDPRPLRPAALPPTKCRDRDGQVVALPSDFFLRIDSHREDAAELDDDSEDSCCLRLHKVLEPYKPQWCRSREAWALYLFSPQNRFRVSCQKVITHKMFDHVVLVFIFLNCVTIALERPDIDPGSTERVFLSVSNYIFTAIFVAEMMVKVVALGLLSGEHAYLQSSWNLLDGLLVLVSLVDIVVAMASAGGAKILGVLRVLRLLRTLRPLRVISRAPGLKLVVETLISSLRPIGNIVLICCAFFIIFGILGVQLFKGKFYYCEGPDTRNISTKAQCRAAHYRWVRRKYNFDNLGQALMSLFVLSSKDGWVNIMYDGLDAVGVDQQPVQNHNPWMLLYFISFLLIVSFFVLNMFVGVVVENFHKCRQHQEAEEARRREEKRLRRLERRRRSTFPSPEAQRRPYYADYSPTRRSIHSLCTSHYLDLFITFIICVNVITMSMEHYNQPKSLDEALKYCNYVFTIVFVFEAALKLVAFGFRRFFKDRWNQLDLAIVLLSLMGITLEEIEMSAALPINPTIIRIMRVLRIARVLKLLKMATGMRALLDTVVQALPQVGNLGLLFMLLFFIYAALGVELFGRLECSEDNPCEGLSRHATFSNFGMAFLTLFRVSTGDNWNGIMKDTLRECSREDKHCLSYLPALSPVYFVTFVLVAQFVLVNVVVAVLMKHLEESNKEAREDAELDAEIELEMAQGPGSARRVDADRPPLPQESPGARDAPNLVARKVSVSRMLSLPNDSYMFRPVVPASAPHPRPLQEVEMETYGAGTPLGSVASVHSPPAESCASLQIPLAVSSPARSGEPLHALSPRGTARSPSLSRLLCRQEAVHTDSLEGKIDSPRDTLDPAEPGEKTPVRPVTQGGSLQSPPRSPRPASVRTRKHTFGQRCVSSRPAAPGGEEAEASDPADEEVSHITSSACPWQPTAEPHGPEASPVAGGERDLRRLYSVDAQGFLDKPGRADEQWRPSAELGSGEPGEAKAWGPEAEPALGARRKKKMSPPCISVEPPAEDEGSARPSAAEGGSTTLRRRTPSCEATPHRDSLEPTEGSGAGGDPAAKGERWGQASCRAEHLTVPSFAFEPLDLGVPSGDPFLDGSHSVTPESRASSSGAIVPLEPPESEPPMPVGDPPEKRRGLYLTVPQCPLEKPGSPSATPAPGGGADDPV
# Procedure: and CiPA Initiative Studies
# =============================================================
# In vitro studies on other ion channels […]
# through NaV1.5, KV4.3, KV7.1/mink, Kir2.1, KV1.5, CaV1.2 and CaV3.2 channels.
# 35-mm dish culture in the conditions mentioned in standard cell culture conditions. Experiments were performed with a cell density enabling isolated cells for patch clamping. Cells were continuously superfused with extracellular medium (1-2 mL∙minute-1) at room temperature.
# D-glucose 10, HEPES 10 and the final pH adjusted to 7.4±0.02 with NaOH for recording NaV1.5, KV4.3, KV7.1/mink, Kir2.1, KV1.5 and CaV3.2 currents. It was (in mM): NaCl 110, KCl 4, BaCl2 20, MgCl2 1, D-glucose 20, HEPES 10 and the final pH adjusted to 7.4 ± 0.02 with NaOH for recording the CaV1.2 current. Compositions of the intracellular solution to fill the pipette are […]
# Composition of intracellular solutions used to fill pipette to record currents through NaV1.5, KV4.3, KV7.1/mink, Kir2.1, KV1.5, CaV1.2 and CaV3.2 channels
# Solution to fill the pipette (mM)
# Creatine-phospho kinase 50 U∙mL-1
# After formation of a Gigaohm seal between the patch electrodes and individual cells (pipette resistance range: 2.0 MΩ - 7.0 MΩ; seal resistance range: > 1 GΩ) the cell membrane across the pipette tip was ruptured to assure electrical access to the cell interior (whole-cell patch-configuration). In case the quality of the seal was poor, the process of seal formation was repeated with a different cell and a new pipette. As soon as a stable seal was established outward tail currents were measured upon pulses described in the Table S2. If current density was judged to be too low for measurement, another cell was recorded. […]
# voltage stimulation protocol indicated in the next table continuously run until the steady-state level of block was reached.
# Stimulation conditions used to record currents through NaV1.5, KV4.3, KV7.1/mink, Kir2.1, KV1.5, CaV1.2 and CaV3.2 channels
# Ion channel Holding potential Pulse / duration Frequency Reference compound […]
# (resting / fast / slow sweeps at one (10 mM) inactivated concentration)
# rabbit Purkinje fibres = test: Action potential parameters in rabbit Purkinje fibres; type: cell-based
# Procedure: Following a lethal dose of pentobarbital, the hearts of male New Zealand rabbits were immediately excised and immersed in a modified Tyrode solution maintained at room temperature and previously saturated with O2/CO2 (95%/5%). A piece of ventricle containing free running Purkinje fibres was fixed to the silastic bottom of an organ bath perfused with the same solution maintained at 37°C for 30 min. The preparation was then superfused with the modified Tyrode solution and stimulated for 30 min at 2 Hz and then at 1 Hz (2 ms stimulus at twice threshold). […] After a stabilization period of at least 1 h, action potentials typical for Purkinje fibres were recorded. Action potential reproducibility and stability were confirmed during a further 20 min stabilization period. […] Each was applied for 20 min to enable steady state to be reached. In addition, the emergence of early after‐depolarizations (EADs), favoured by calcium loading during the late phase 2 of the prolonged action potential, is recognized as a better marker of pro‐arrhythmic potential than APD prolongation alone.
# [1] = test system: human stem cell‐derived cardiomyocytes; type: cell-based
# Source text: . Human cardiomyocytes (Cor.4U®, Axiogenesis AG, Cologne, Germany) were derived from human iPSC. Preparations were stimulated at 0.5 Hz with 4 ms rectangular pulses from 1 to 1.5 times depolarization threshold to −60 mV. We studied RMP, APA, action potential durations measured at 20 and 90% repolarization (APD20 and APD90) and APD90‐APD20. […]
# in vivo = settings: both sexes, Beagle, dog, in vivo; for concentration at 1 h: po, 1 h after administration, read-out: total drug exposure (serum level)
# Procedure: (§1) Telemetry implantation was performed as previously described (Lacroix et al., 2003). Approximately 2 weeks later, blood pressure, heart rate and ECG intervals were recorded per blocks of 30 s at the time points of interest for 30 min before and for 24 h after administration of test compound. ECG traces were inspected visually for any rhythm or conduction abnormalities (such as arrhythmia, tachyarrhythmia, atrioventricular conduction blocks), and values of PR, QRS and QT intervals were obtained by a validated manual reading procedure (mean calculated from three non‐consecutive sinus beats). The QT interval measured was corrected for heart rate using the Fridericia formula (QTcF) and the van de Waters formula. […] Five to six dogs (two or three males and three females) were studied with at least 48 h between each test session.
# (§2) At the highest dose of 15 mg·kg^−1 p.o., this route provided an exposure (59 ± 25 ng·mL^−1), without any adverse CNS events (i.e. pre‐convulsive signs) in this species, close to the exposure recorded in humans at therapeutic doses. […] Pitolisant serum levels were assessed by LC‐mass spectrometry using a validated analytical method.
# [2] = test system: conscious telemetered dogs; test: in vivo; settings: dog
# Procedure: as §1, §2
# α2A‐adrenoceptor = α2A‐adrenoceptor (Homo sapiens, UniProt P08913); test: Affinity at α2A-adrenoceptor; type: binding
# Sequence of α2A‐adrenoceptor (P08913 whole entry): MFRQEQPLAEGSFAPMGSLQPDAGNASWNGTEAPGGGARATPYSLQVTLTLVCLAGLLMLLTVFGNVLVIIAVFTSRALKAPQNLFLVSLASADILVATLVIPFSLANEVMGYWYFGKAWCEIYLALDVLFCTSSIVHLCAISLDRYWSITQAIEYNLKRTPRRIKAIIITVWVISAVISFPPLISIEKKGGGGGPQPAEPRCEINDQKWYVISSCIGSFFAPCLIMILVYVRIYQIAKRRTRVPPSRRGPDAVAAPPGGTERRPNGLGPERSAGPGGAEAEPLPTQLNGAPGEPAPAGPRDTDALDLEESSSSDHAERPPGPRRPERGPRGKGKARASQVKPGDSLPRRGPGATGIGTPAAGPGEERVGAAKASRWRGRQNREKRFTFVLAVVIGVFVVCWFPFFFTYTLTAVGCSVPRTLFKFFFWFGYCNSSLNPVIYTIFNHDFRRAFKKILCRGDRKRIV
# α2B‐adrenoceptor = α2B‐adrenoceptor (Homo sapiens, UniProt P18089); test: Affinity at α2B-adrenoceptor; type: binding
# Sequence of α2B‐adrenoceptor (P18089 whole entry): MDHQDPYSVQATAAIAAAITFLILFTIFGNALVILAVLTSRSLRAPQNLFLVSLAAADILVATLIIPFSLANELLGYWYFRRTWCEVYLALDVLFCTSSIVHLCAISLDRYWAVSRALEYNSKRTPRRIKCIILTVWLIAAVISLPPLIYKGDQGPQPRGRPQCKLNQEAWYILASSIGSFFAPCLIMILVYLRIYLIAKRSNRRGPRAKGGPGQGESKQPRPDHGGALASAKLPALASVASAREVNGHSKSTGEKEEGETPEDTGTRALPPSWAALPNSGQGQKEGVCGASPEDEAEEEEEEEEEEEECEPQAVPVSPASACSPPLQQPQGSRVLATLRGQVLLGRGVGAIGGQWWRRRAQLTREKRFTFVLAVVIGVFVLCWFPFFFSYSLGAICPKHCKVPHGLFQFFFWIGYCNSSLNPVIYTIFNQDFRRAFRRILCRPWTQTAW
# α2C‐adrenoceptor = α2C‐adrenoceptor (Homo sapiens, UniProt P18825); test: Affinity at α2C-adrenoceptor; type: binding
# Sequence of α2C‐adrenoceptor (P18825 whole entry): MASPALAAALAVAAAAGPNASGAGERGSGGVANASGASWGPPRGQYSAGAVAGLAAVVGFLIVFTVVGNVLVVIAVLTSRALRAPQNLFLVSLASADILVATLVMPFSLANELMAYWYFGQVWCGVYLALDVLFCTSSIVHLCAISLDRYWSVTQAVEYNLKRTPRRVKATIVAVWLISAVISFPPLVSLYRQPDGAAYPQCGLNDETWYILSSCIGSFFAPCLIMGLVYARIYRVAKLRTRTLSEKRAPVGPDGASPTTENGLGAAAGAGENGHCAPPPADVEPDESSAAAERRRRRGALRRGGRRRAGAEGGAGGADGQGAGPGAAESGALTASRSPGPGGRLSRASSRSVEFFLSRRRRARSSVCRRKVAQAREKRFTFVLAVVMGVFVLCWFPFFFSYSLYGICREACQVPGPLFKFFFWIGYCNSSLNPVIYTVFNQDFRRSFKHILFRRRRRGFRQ
# in vitro = settings: human
# Sequence of Kv11.1 (hERG) channel (Q12809 whole entry): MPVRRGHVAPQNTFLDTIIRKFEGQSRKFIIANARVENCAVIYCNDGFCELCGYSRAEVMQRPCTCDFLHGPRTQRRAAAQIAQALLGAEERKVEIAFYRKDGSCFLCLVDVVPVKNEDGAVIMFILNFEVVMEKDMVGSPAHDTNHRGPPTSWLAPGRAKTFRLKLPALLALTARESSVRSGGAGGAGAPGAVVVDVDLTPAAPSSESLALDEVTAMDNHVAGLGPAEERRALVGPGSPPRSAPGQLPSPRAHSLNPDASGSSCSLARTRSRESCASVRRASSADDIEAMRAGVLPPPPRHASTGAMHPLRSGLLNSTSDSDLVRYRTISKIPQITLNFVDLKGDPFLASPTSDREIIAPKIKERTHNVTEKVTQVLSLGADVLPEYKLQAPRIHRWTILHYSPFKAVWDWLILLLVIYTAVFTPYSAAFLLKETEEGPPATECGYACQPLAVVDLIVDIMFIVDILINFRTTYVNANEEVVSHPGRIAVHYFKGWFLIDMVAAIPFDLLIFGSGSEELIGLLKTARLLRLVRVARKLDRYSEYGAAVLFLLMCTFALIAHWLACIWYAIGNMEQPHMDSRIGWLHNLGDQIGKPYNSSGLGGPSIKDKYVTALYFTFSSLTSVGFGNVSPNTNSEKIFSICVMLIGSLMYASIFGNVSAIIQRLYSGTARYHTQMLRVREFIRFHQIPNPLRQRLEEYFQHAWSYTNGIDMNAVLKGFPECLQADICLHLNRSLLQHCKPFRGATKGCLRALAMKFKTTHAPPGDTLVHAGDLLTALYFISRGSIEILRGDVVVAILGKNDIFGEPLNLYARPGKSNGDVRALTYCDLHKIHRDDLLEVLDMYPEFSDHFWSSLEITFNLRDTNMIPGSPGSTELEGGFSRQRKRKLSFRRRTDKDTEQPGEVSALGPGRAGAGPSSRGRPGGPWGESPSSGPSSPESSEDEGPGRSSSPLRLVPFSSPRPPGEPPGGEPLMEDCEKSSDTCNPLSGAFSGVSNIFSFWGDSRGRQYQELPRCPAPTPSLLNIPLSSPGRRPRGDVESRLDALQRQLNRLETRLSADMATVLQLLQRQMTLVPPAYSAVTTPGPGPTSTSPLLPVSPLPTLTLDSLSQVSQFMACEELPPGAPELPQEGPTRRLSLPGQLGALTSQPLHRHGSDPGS
compound,measurement,setting,value
"Cl.Clc1ccc(CCCOCCCN2CCCCC2)cc1 [pitolisant, 1‐{3‐[3‐(4‐chlorophenyl)propoxy]propyl}piperidine, hydrochloride]",IC50,Kv11.1 (hERG) channel,1.3 µM
same,safety margin (hERG IC50 versus free drug concentration),Kv11.1 (hERG) channel; assuming 96% protein-binding and free concentration of […] at 40 mg maximal therapeutic dose,around 100
same,IC50,"CaV3.2; CaV3.2 ICaT, Hill curve fit with Hill coefficient of one, read-out: Fitted IC50",25.7 µM
same,IC50,"CaV3.2; Pitolisant IC50, CaV3.2, ICaT",≥ 10 µM
same,effects on electrophysiological parameters of the action potential,rabbit Purkinje fibres; 1 μM,only minimal effects
same,change in APA,rabbit Purkinje fibres; 10 μM,−8 ± 3%
same,change in APD50 vs. the control,rabbit Purkinje fibres; 10 μM,−27 ± 4%
same,change in Vmax,rabbit Purkinje fibres; 10 μM,−17 ± 5%
same,change in resting RMP vs. the control,rabbit Purkinje fibres; 10 μM,−6 ± 1%
same,change in APD90 vs. the control,"rabbit Purkinje fibres; 10 μM, non-significant",+9 ± 5%
same,IC50,"rabbit Purkinje fibres; Oryctolagus cuniculus, purkinje, estimated from 27% decrease in APD50 at 10 μM",~5 µM
same,effect on dofetilide-induced increase in APD90,[1],fully reversed
same,increase in APD90–20 vs. baseline,[1]; 3 μM,192 ms
same,maximal increase in APD90,[1]; 3 μM,97 ms
same,increase in APD90–20 vs. baseline,[1]; 10 μM,176 ms
same,effect on APD20,"[1]; 1, 3 or 10 μM",concentration‐dependent effect of decreasing APD20
same,effect on RMP and APA,"[1]; 1, 3 or 10 μM",little effect
same,concentration at 5 min,"in vivo; iv, 1.5 mg·kg^−1 i.v., 5 min, read-out: total drug concentration",294 ± 40 ng/mL
same,concentration at 30 min,"in vivo; iv, 1.5 mg·kg^−1 i.v., 30 min, read-out: total drug concentration",231 ± 36 ng/mL
same,concentration at 1 h,in vivo; 5 mg·kg^−1 p.o.,3.5 ± 1 ng/mL
same,concentration at 1 h,in vivo; 10 mg·kg^−1 p.o.,15.8 ± 5.8 ng/mL
same,concentration at 1 h,in vivo; 15 mg·kg^−1 p.o.,59 ± 25 ng/mL
same,free drug concentration,"[2]; both, Beagle, in vivo, iv",~ 0.14 μM
same,effect on mean arterial blood pressure and heart rate,"[2]; 4.5 mg·kg^−1 i.v., for up to 4 h after injection",increases in mean arterial blood pressure and heart rate
same,effect on QTcF interval,"[2]; 4.5 mg·kg^−1 i.v., return to baseline 30 min after injection",decrease in QTcF interval for 20 min
same,total drug exposure (serum level),"[2]; 15 mg·kg^−1 p.o., 1 h after administration",59.2 ± 24.6 ng/mL
same,arrhythmia or other morphological changes in the ECG,"[2]; over the test period, 6/6 dogs",No arrhythmia or other morphological changes in the ECG
same,"effect on heart rate, mean arterial blood pressure, QTc interval or any other ECG parameter","[2]; single doses 5, 10 and 15 mg·kg^−1 p.o. or 1.5 mg·kg^−1 i.v., compared to vehicle",no effect
same,Ki,α2A‐adrenoceptor,2.9 µM
same,Ki,α2B‐adrenoceptor,4.3 µM
same,Ki,α2C‐adrenoceptor,1.2 µM
same,fraction unbound,in vitro,~0.04
